Experimental data from patent US20250325485A1, “STABLE COMPOSITIONS OF FOXY-5 HEXAPEPTIDE WITH HIGH SOLUBILITY” (WNTRESEARCH AB, priority 2021, published 2025).
Structures can show the parent of a compound that is named as a salt. Peptide text beside a SMILES is read from it. * marks the point of attachment. For = O=C*

Experiments:
FIG. 10 = assay: FIG. 10
Description: Table printed on a drawing sheet, FIG. 10
The patent's description of the figure: FIG. 10
First reader's note: Storage stability of Foxy-5 free acid and its salts shown as HPLC purity and impurity levels (Ala, aspartimide, dimer) initially and after 2 and 4 weeks at 40°C; decimal commas as printed.

[1] = Conversion of Foxy-5 to mono-, di- and tri-sodium salts; assay type: physicochemical
Description: As Foxy-5 contains three carboxylic groups (Asp^2, Glu^5, and the C-terminal carboxylic acids), the mono, di, and tri-sodium salts were generated by treating aqueous slurries of Foxy-5 (25 g/L) with 1 eq., 2 eq. and 3 eq. of sodium hydroxide. As starting material, a batch of Foxy-5 free acid containing very low amounts of two known impurities, the aspartimide (<0.1%) and the dimer, (<0.1%) was used (structures, see FIG. 2).
The di-sodium salt could be completely dissolved within 10 minutes after addition of NaOH (2 eq., pH=4.57). […] After lyophilization, 0.07% dimer and 0.79% aspartimide were detected.
The tri-sodium salt dissolved within 5 minutes after addition of NaOH (3 eq., pH=6.76) with minimal increase of the aspartimide impurity, but increased formation of the dimer was observed. After lyophilization, 0.41% dimer and 0.17% of the aspartimide were detected.

Compound	After 2 weeks @ 40°C | Ala (area%) (FIG. 10)	After 2 weeks @ 40°C | Aspartimide (area%) (FIG. 10)	After 2 weeks @ 40°C | Dimer (area%) (FIG. 10)	After 2 weeks @ 40°C | HPLC purity (area%) (FIG. 10)	After 4 weeks @ 40°C | Ala (area%) (FIG. 10)	After 4 weeks @ 40°C | Aspartimide (area%) (FIG. 10)	After 4 weeks @ 40°C | Dimer (area%) (FIG. 10)	After 4 weeks @ 40°C | HPLC purity (area%) (FIG. 10)	dissolution after NaOH addition ([1]; aqueous slurry of Foxy-5 25 g/L, 1 eq. NaOH, pH=3.84)	time to complete dissolution after addition of NaOH ([1]; aqueous slurry of Foxy-5 25 g/L) [min]	aspartimide detected after lyophilization ([1]; starting material aspartimide <0.1%, HPLC) [%]	dimer detected after lyophilization ([1]; starting material dimer <0.1%, HPLC) [%]
CSCC[C@H](NC=O)C(=O)N[C@@H](CC(=O)O)C(=O)NCC(=O)N[C@@H](CS)C(=O)N[C@@H](CCC(=O)O)C(=O)N[C@@H](CC(C)C)C(=O)O [DEA Di salt] (For-MDGCEL-OH)	0 area%	4,98 area%	1,18 area%	92,88 area%	0,25 area%	7,50 area%	3,10 area%	87,11 area%				
CSCC[C@H](NC=O)C(=O)N[C@@H](CC(=O)O)C(=O)NCC(=O)N[C@@H](CS)C(=O)N[C@@H](CCC(=O)O)C(=O)N[C@@H](CC(C)C)C(=O)O [mono-sodium salt] (For-MDGCEL-OH)									could not be completely dissolved			
CSCC[C@H](NC=O)C(=O)N[C@@H](CC(=O)O)C(=O)NCC(=O)N[C@@H](CS)C(=O)N[C@@H](CCC(=O)O)C(=O)N[C@@H](CC(C)C)C(=O)O [Foxy-5 free acid] (For-MDGCEL-OH)	0 area%	0,75 area%	0,00 area%	98,40 area%	0,00 area%	0,80 area%	0,00 area%	98,21 area%				
CSCC[C@H](NC=O)C(=O)N[C@@H](CC(=O)O)C(=O)NCC(=O)N[C@@H](CS)C(=O)N[C@@H](CCC(=O)O)C(=O)N[C@@H](CC(C)C)C(=O)O [TRO Tri salt] (For-MDGCEL-OH)	0 area%	8,24 area%	0,63 area%	87,27 area%	0,00 area%	11,40 area%	1,28 area%	78,60 area%				
CSCC[C@H](NC=O)C(=O)N[C@@H](CC(=O)O)C(=O)NCC(=O)N[C@@H](CS)C(=O)N[C@@H](CCC(=O)O)C(=O)N[C@@H](CC(C)C)C(=O)O [HIS Di salt] (For-MDGCEL-OH)	0 area%	1,97 area%	0,00 area%	97,40 area%	0,00 area%	2,40 area%	0,00 area%	96,52 area%				
CSCC[C@H](NC=O)C(=O)N[C@@H](CC(=O)O)C(=O)NCC(=O)N[C@@H](CS)C(=O)N[C@@H](CCC(=O)O)C(=O)N[C@@H](CC(C)C)C(=O)O [HIS Tri salt] (For-MDGCEL-OH)	0 area%	1,97 area%	1,10 area%	96,41 area%	0,00 area%	2,43 area%	0,90 area%	95,32 area%				
CSCC[C@H](NC=O)C(=O)N[C@@H](CC(=O)O)C(=O)NCC(=O)N[C@@H](CS)C(=O)N[C@@H](CCC(=O)O)C(=O)N[C@@H](CC(C)C)C(=O)O [Na Tri salt] (For-MDGCEL-OH)	13,4 area%	0,53 area%	13,20 area%	68,15 area%	14,70 area%	0,30 area%	16,80 area%	60,34 area%				
CSCC[C@H](NC=O)C(=O)N[C@@H](CC(=O)O)C(=O)NCC(=O)N[C@@H](CS)C(=O)N[C@@H](CCC(=O)O)C(=O)N[C@@H](CC(C)C)C(=O)O [NH3 Tri salt] (For-MDGCEL-OH)	0 area%	4,10 area%	2,95 area%	88,64 area%	0,00 area%	3,88 area%	3,37 area%	86,45 area%				
CSCC[C@H](NC=O)C(=O)N[C@@H](CC(=O)O)C(=O)NCC(=O)N[C@@H](CS)C(=O)N[C@@H](CCC(=O)O)C(=O)N[C@@H](CC(C)C)C(=O)O [NMG Di salt] (For-MDGCEL-OH)	0 area%	3,85 area%	0,93 area%	93,22 area%	0,00 area%	6,17 area%	0,81 area%	91,23 area%				
CSCC[C@H](NC=O)C(=O)N[C@@H](CC(=O)O)C(=O)NCC(=O)N[C@@H](CS)C(=O)N[C@@H](CCC(=O)O)C(=O)N[C@@H](CC(C)C)C(=O)O [di-sodium salt] (For-MDGCEL-OH)										≤ 10	0.79	0.07
CSCC[C@H](NC=O)C(=O)N[C@@H](CC(=O)O)C(=O)NCC(=O)N[C@@H](CS)C(=O)N[C@@H](CCC(=O)O)C(=O)N[C@@H](CC(C)C)C(=O)O [NH3 Di salt] (For-MDGCEL-OH)	0 area%	4,45 area%	0,38 area%	92,27 area%	0,00 area%	5,52 area%	0,27 area%	89,75 area%				
CSCC[C@H](NC=O)C(=O)N[C@@H](CC(=O)O)C(=O)NCC(=O)N[C@@H](CS)C(=O)N[C@@H](CCC(=O)O)C(=O)N[C@@H](CC(C)C)C(=O)O [DEA Tri salt] (For-MDGCEL-OH)	1,91 area%	5,78 area%	8,10 area%	82,51 area%	1,82 area%	7,20 area%	5,80 area%	80,92 area%				
CSCC[C@H](NC=O)C(=O)N[C@@H](CC(=O)O)C(=O)NCC(=O)N[C@@H](CS)C(=O)N[C@@H](CCC(=O)O)C(=O)N[C@@H](CC(C)C)C(=O)O [LYS Tri salt] (For-MDGCEL-OH)	4,25 area%	1,10 area%	1,80 area%	92,29 area%	8,45 area%	1,26 area%	3,40 area%	84,97 area%				
CSCC[C@H](NC=O)C(=O)N[C@@H](CC(=O)O)C(=O)NCC(=O)N[C@@H](CS)C(=O)N[C@@H](CCC(=O)O)C(=O)N[C@@H](CC(C)C)C(=O)O [LYS Di salt] (For-MDGCEL-OH)	0 area%	2,50 area%	0,00 area%	97,06 area%	0,47 area%	2,80 area%	0,55 area%	95,17 area%				
CSCC[C@H](NC=O)C(=O)N[C@@H](CC(=O)O)C(=O)NCC(=O)N[C@@H](CS)C(=O)N[C@@H](CCC(=O)O)C(=O)N[C@@H](CC(C)C)C(=O)O [NMG Tri salt] (For-MDGCEL-OH)	0 area%	1,76 area%	1,13 area%	95,97 area%	0,00 area%	3,06 area%	0,82 area%	95,14 area%				
CSCC[C@H](NC=O)C(=O)N[C@@H](CC(=O)O)C(=O)NCC(=O)N[C@@H](CS)C(=O)N[C@@H](CCC(=O)O)C(=O)N[C@@H](CC(C)C)C(=O)O [TRO Di salt] (For-MDGCEL-OH)	0 area%	2,75 area%	0,00 area%	96,51 area%	0,00 area%	4,20 area%	0,60 area%	93,87 area%				
